Laboratory results reported in publication PMC10783051 (Microbiology Spectrum, 2023).

System: Streptomyces venezuelae ATCC 10712
Experiment: In planta co-inoculation on tomato roots, UPLC-MS of rhizosphere extracts
Details: tomato roots on Hoagland agar, 7 days at 22°C, UPLC-MS of agar near the roots, four biological replicates
Protocol: For the in planta studies, tomato seeds (Solanum lycopersicum var. Moneymaker) were sterilized following the protocol described by ([26]). Briefly, tomato seeds were primarily sterilized in 70% ethanol (vol/vol) by gently shaking for 2 min. Further, the ethanol was removed and the seeds were added to 50 mL of the sterilization solution [4.5 mL of bleach containing 9.5% (vol/vol) of active chlorine, 0.01 g of Tween 80, and 45.5 mL of sterile water] and gently shaken for 10 min. Seeds were thereafter washed 10 times with water to eliminate sterilization solution residues. […]
All UPLC-MS analyses were performed using an Agilent 1290 Infinity II coupled with a diode array detector and a mass detector (Jet Stream ESI-Q-TOF 6530) in positive mode with the parameters set up as follows: capillary voltage of 3.5 kV, nebulizer pressure of 35 lb/in^2, drying gas of 8 L/min, drying gas temperature of 300°C, flow rate of sheath gas of 11 L/min, sheath gas temperature of 350°C, fragmentor voltage of 175 V, skimmer voltage of 65 V, and octopole radiofrequency of 750 V. Accurate mass spectra were recorded in the m/z range of 300–1,700. […]

## iturin
  linear forms in rhizosphere extracts upon co-inoculation of Bv with Sv: high proportion of linear
